# Measured values: PubChem BioAssay (NCI)
#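 Each compound was tested at five concentrations against cells in 96-well plates for 48 hours. At the GI50, growth is halved. TGI marks complete inhibition of growth.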
# Tests used:
# Test in all cases: NCI anticancer screen, dose series, 48 h
# 786-0 renal = tested on: 786-0 renal
# UO-31 renal = tested on: UO-31 renal
# A498 renal = tested on: A498 renal
# LOX IMVI melanoma = tested on: LOX IMVI melanoma
# NCI-H226 lung = tested on: NCI-H226 lung
# OVCAR-5 ovarian = tested on: OVCAR-5 ovarian
# HL-60(TB) leukemia = tested on: HL-60(TB) leukemia
# MDA-MB-231 breast = tested on: MDA-MB-231 breast
# MOLT-4 leukemia = tested on: MOLT-4 leukemia
# NCI-H522 lung = tested on: NCI-H522 lung
Structure (SMILES),GI50 (786-0 renal) [µM],TGI (786-0 renal) [µM],GI50 (UO-31 renal) [µM],TGI (UO-31 renal) [µM],GI50 (A498 renal) [µM],TGI (A498 renal) [µM],GI50 (LOX IMVI melanoma) [µM],TGI (LOX IMVI melanoma) [µM],GI50 (NCI-H226 lung) [µM],TGI (NCI-H226 lung) [µM],GI50 (OVCAR-5 ovarian) [µM],TGI (OVCAR-5 ovarian) [µM],GI50 (HL-60(TB) leukemia) [µM],TGI (HL-60(TB) leukemia) [µM],GI50 (MDA-MB-231 breast) [µM],TGI (MDA-MB-231 breast) [µM],GI50 (MOLT-4 leukemia) [µM],TGI (MOLT-4 leukemia) [µM],GI50 (NCI-H522 lung) [µM],TGI (NCI-H522 lung) [µM]
COc1ccc(/C=C2/CCOC2=O)cc1,> 100,> 100,49.8,> 100,14.9,> 100,> 100,> 100,> 100,> 100,> 100,> 100,> 100,> 100,> 100,> 100,> 100,> 100,–,–
COc1ccc(CNCCCN2C(=O)c3ccc4c5c(ccc(c35)C2=O)C(=O)N(CCCNCCCCNCCCN)C4=O)c(OC)c1OC,3.53,22.5,4.84,> 100,5.5,23.1,0.654,7.83,2.11,16.4,–,–,2.73,13.1,2.44,18,1.53,15.6,–,–
C=C(C)[C@@H]1CC[C@]2(C)[C@H](CC=C3[C@@H]4CC(C)(C)CC[C@]4(C(=O)OC)CC[C@]32C)[C@@]1(C)CC/C(N)=N/O,1.76,3.19,1.51,2.94,2.05,4.48,–,–,–,–,1.72,3.73,2.47,7.62,1.61,3.24,2.09,5.25,1.58,4.12
CCCCCCCCOC(=O)c1cc(O)c(O)c(O)c1,2.46,11.9,0.279,2.9,8.26,24.7,1.33,10.6,8.51,29,12.5,52.9,0.486,5.02,12.1,63.1,0.437,16.5,–,–
CCOc1ccc2c(-c3ccnc(Nc4cccc(C(F)(F)F)c4)n3)cnn2n1,7.3,> 19.6,> 25,> 25,8.2,> 25,12.3,> 25,> 25,> 25,> 15.9,> 25,> 25,> 25,14.7,> 25,> 25,> 25,6.33,> 23.1
O=C1c2ccccc2C(=O)c2c1c(NCCNCCO)c1cc[nH]c1c2NCCNCCO,3.87,> 36.7,62.9,> 100,8.09,32.9,1.53,> 100,1.78,13.5,3.96,> 31.3,2.9,> 21,4.15,18.9,1.28,–,2.32,> 35.8
COc1cc(C)c(N(C)C(=O)CN(C)C)cc1Nc1nc(Nc2cccc(F)c2C(N)=O)c2cc[nH]c2n1,> 25,> 25,9.26,> 25,> 13.9,> 25,24.6,> 25,> 24,> 25,1.41,> 25,3.2,> 25,> 25,> 25,> 21.9,> 25,> 25,> 25
COc1ccc(-c2ccc(=O)oc2-c2cc(OC)c(OC)c(OC)c2)cc1O,< 0.0228,13.9,< 0.0208,> 100,0.0315,> 77.6,0.051,> 100,0.199,> 100,–,> 100,0.0208,0.0705,0.0613,> 100,0.0512,> 100,0.0124,0.0944
CN([N-]C(=O)CC(=O)[N-]N(C)C(=S)c1ccccc1)C(=S)c1ccccc1.[Cu+2],0.0503,0.116,0.0666,0.231,0.0346,0.146,< 0.0129,0.0683,0.183,0.467,0.0445,0.175,0.0663,–,0.0221,0.132,< 0.0108,0.22,< 0.013,0.0281
C=C(C)[C@@H]1CC[C@]2(c3ncc(C)o3)CC[C@]3(C)[C@H](CC[C@@H]4[C@@](C)(CCC#N)[C@H](C(=C)C)CC[C@]43C)[C@@H]12,8.23,23.4,2.4,14.8,14.4,27.8,1.95,4.14,3.28,14.5,8.73,21.1,2.49,6.83,2.53,6.41,2.85,9.82,1.9,4.16
COc1cccc(NC(=O)c2ccc(C(F)(F)F)nc2Nc2ccc(Cl)cc2C)c1,14.7,31.4,1.45,8.29,1.65,11.9,11.3,23.4,14.7,34.8,2.51,20,–,–,10.4,23.3,10.2,51,1.28,7.18
N#C/C(=C/c1cccs1)c1cccs1,> 100,> 100,> 100,> 100,> 100,> 100,> 100,> 100,> 100,> 100,> 100,> 100,> 100,> 100,> 100,> 100,> 100,> 100,> 100,> 100
